Results published in ChEMBL document CHEMBL1153245, “A profile of the in vitro anti-tumor activity of imidazolium-based ionic liquids” (2010).

Assays:
Type in all cases: functional
EKVX [1] = assay: Anticancer activity against human EKVX cells assessed cell growth at 10 uM after 48 hrs by sulforhodamine B assay relative to control
CCRF-CEM = assay: Anticancer activity against human CCRF-CEM cells after 48 hrs by sulforhodamine B assay; settings: Homo sapiens, CCRF-CEM, 48 h
HL-60(TB) = assay: Anticancer activity against human HL-60(TB) cells after 48 hrs by sulforhodamine B assay; settings: Homo sapiens, HL-60, 48 h; for CC50: read-out: LC50 (the source's name)
A549 = assay: Anticancer activity against human A549 cells after 48 hrs by sulforhodamine B assay; settings: Homo sapiens, A549, 48 h
EKVX [2] = assay: Anticancer activity against human EKVX cells after 48 hrs by sulforhodamine B assay; settings: Homo sapiens, EKVX, 48 h; for CC50: read-out: LC50 (the source's name)
HOP-62 = assay: Anticancer activity against human HOP62 cells after 48 hrs by sulforhodamine B assay; settings: Homo sapiens, HOP-62, 48 h; for CC50: read-out: LC50 (the source's name)
NCI-H226 = assay: Anticancer activity against human NCI-H226 cells after 48 hrs by sulforhodamine B assay; settings: Homo sapiens, NCI-H226, 48 h
NCI-H23 = assay: Anticancer activity against human NCI-H23 cells after 48 hrs by sulforhodamine B assay; settings: Homo sapiens, NCI-H23, 48 h; for CC50: read-out: LC50 (the source's name)
NCI-H322M = assay: Anticancer activity against human NCI-H322M cells after 48 hrs by sulforhodamine B assay; settings: Homo sapiens, NCI-H322M, 48 h
NCI-H460 = assay: Anticancer activity against human NCI-H460 cells after 48 hrs by sulforhodamine B assay; settings: Homo sapiens, NCI-H460, 48 h
NCI-H522 = assay: Anticancer activity against human NCI-H522 cells after 48 hrs by sulforhodamine B assay; settings: Homo sapiens, NCI-H522, 48 h
HCT-116 = assay: Anticancer activity against human HCT116 cells after 48 hrs by sulforhodamine B assay; settings: Homo sapiens, HCT-116, 48 h; for CC50: read-out: LC50 (the source's name)
KM12 = assay: Anticancer activity against human KM12 cells after 48 hrs by sulforhodamine B assay; settings: Homo sapiens, KM12, 48 h; for CC50: read-out: LC50 (the source's name)
SF-268 = assay: Anticancer activity against human SF268 cells after 48 hrs by sulforhodamine B assay; settings: Homo sapiens, SF-268, 48 h; for CC50: read-out: LC50 (the source's name)
SF-295 = assay: Anticancer activity against human SF295 cells after 48 hrs by sulforhodamine B assay; settings: Homo sapiens, SF-295, 48 h; for CC50: read-out: LC50 (the source's name)
SF-539 = assay: Anticancer activity against human SF539 cells after 48 hrs by sulforhodamine B assay; settings: Homo sapiens, SF-539, 48 h
SNB-19 = assay: Anticancer activity against human SNB19 cells after 48 hrs by sulforhodamine B assay; settings: Homo sapiens, SNB-19, 48 h; for CC50: read-out: LC50 (the source's name)
SNB-75 = assay: Anticancer activity against human SNB75 cells after 48 hrs by sulforhodamine B assay; settings: Homo sapiens, SNB-75, 48 h; for CC50: read-out: LC50 (the source's name)
U-251 = assay: Anticancer activity against human U251 cells after 48 hrs by sulforhodamine B assay; settings: Homo sapiens, U-251, 48 h; for CC50: read-out: LC50 (the source's name)
Malme-3M = assay: Anticancer activity against human MALME-3M cells after 48 hrs by sulforhodamine B assay; settings: Homo sapiens, Malme-3M, 48 h
SK-MEL-2 = assay: Anticancer activity against human SK-MEL-2 cells after 48 hrs by sulforhodamine B assay; settings: SK-MEL-2, 48 h
SK-MEL-28 = assay: Anticancer activity against human SK-MEL-28 cells after 48 hrs by sulforhodamine B assay; settings: Homo sapiens, SK-MEL-28, 48 h
UACC-62 = assay: Anticancer activity against human UACC62 cells after 48 hrs by sulforhodamine B assay; settings: Homo sapiens, UACC-62, 48 h
IGROV-1 = assay: Anticancer activity against human IGROV1 cells after 48 hrs by sulforhodamine B assay; settings: IGROV-1, 48 h; for CC50: read-out: LC50 (the source's name)
OVCAR-5 = assay: Anticancer activity against human OVCAR5 cells after 48 hrs by sulforhodamine B assay; settings: Homo sapiens, OVCAR-5, 48 h; for CC50: read-out: LC50 (the source's name)
OVCAR-8 = assay: Anticancer activity against human OVCAR8 cells after 48 hrs by sulforhodamine B assay; settings: Homo sapiens, OVCAR-8, 48 h
A498 = assay: Anticancer activity against human A498 cells after 48 hrs by sulforhodamine B assay; settings: Homo sapiens, A498, 48 h; for CC50: read-out: LC50 (the source's name)
ACHN = assay: Anticancer activity against human ACHN cells after 48 hrs by sulforhodamine B assay; settings: Homo sapiens, ACHN, 48 h
TK-10 = assay: Anticancer activity against human TK10 cells after 48 hrs by sulforhodamine B assay; settings: Homo sapiens, TK-10, 48 h
UO-31 = assay: Anticancer activity against human UO31 cells after 48 hrs by sulforhodamine B assay; settings: Homo sapiens, UO-31, 48 h
PC-3 = assay: Anticancer activity against human PC3 cells after 48 hrs by sulforhodamine B assay; settings: Homo sapiens, PC-3, 48 h; for CC50: read-out: LC50 (the source's name)
DU-145 = assay: Anticancer activity against human DU145 cells after 48 hrs by sulforhodamine B assay; settings: Homo sapiens, DU-145, 48 h; for CC50: read-out: LC50 (the source's name)
[3] = Anticancer activity against human Hs 578T cells after 48 hrs by sulforhodamine B assay; settings: Homo sapiens, Hs-578T, 48 h; for CC50: read-out: LC50 (the source's name)
MDA-MB-468 = assay: Anticancer activity against human MDA-MB-468 cells after 48 hrs by sulforhodamine B assay; settings: Homo sapiens, MDA-MB-468, 48 h

COCC[n+]1ccn(C)c1.O=S(=O)([N-]S(=O)(=O)C(F)(F)F)C(F)(F)F
Activity (EKVX [1]): 108.75%

CCCCCCCCCCCCCCCCCC[n+]1ccn(C)c1.FC(F)(F)C(F)(F)[P-](F)(F)(F)(C(F)(F)C(F)(F)F)C(F)(F)C(F)(F)F
GI50 (CCRF-CEM): 0.324 µM | LC50 (CCRF-CEM): > 100 µM | GI50 (HL-60(TB)): 0.238 µM | CC50 (HL-60(TB)): > 100 µM | GI50 (A549): 0.458 µM | LC50 (concentration killing 50% of cells) (A549): > 100 µM | GI50 (EKVX [2]): 0.346 µM | CC50 (EKVX [2]): 8.91 µM | GI50 (HOP-62): 0.39 µM | CC50 (HOP-62): 6.09 µM | GI50 (NCI-H226): 0.435 µM | LC50 (NCI-H226): 8.23 µM | GI50 (NCI-H23): 0.224 µM | CC50 (NCI-H23): 12.7 µM | GI50 (NCI-H322M): 0.406 µM | LC50 (NCI-H322M): 5.54 µM | GI50 (NCI-H460): 0.323 µM | LC50 (NCI-H460): 4.85 µM | GI50 (NCI-H522): 0.285 µM | LC50 (NCI-H522): 4.32 µM | GI50 (HCT-116): 0.294 µM | CC50 (HCT-116): > 100 µM | GI50 (KM12): 0.214 µM | CC50 (KM12): 0.929 µM | GI50 (SF-268): 0.481 µM | CC50 (SF-268): 5.79 µM | GI50 (SF-295): 0.275 µM | CC50 (SF-295): 5.77 µM | GI50 (SF-539): 0.288 µM | LC50 (lethal concentration, 50% cell kill) (SF-539): 4.19 µM | GI50 (SNB-19): 0.422 µM | CC50 (SNB-19): 3.95 µM | GI50 (SNB-75): 0.419 µM | CC50 (SNB-75): > 100 µM | GI50 (U-251): 0.322 µM | CC50 (U-251): 3.7 µM | GI50 (Malme-3M): 0.271 µM | LC50 (concentration killing 50% of cells) (Malme-3M): 4.25 µM | GI50 (SK-MEL-2): 0.372 µM | LC50 (SK-MEL-2): > 100 µM | GI50 (SK-MEL-28): 0.374 µM | LC50 (SK-MEL-28): 3.98 µM | GI50 (UACC-62): 0.5 µM | LC50 (UACC-62): 4.66 µM | GI50 (IGROV-1): 0.219 µM | CC50 (IGROV-1): 1.45 µM | GI50 (OVCAR-5): 0.489 µM | CC50 (OVCAR-5): 32.7 µM | GI50 (OVCAR-8): 0.491 µM | LC50 (OVCAR-8): > 100 µM | GI50 (A498): 0.371 µM | CC50 (A498): 3.39 µM | GI50 (ACHN): 0.281 µM | LC50 (ACHN): 3.55 µM | GI50 (TK-10): 0.31 µM | LC50 (TK-10): 4.12 µM | GI50 (UO-31): 0.365 µM | LC50 (UO-31): 5.31 µM | GI50 (PC-3): 0.276 µM | CC50 (PC-3): 8.03 µM | GI50 (DU-145): 0.495 µM | CC50 (DU-145): 4.43 µM | GI50 [3]: 0.287 µM | CC50 [3]: 5.43 µM | GI50 (MDA-MB-468): 0.173 µM | LC50 (MDA-MB-468): > 100 µM

CCCCCCCCCCCCCCCCCC[n+]1ccn(C)c1.O=S(=O)([N-]S(=O)(=O)C(F)(F)F)C(F)(F)F
GI50 (CCRF-CEM): 0.458 µM | LC50 (CCRF-CEM): > 100 µM | GI50 (HL-60(TB)): 0.293 µM | CC50 (HL-60(TB)): > 100 µM | GI50 (A549): 1.18 µM | LC50 (concentration killing 50% of cells) (A549): > 100 µM | GI50 (EKVX [2]): 0.673 µM | CC50 (EKVX [2]): 5.76 µM | GI50 (HOP-62): 1.11 µM | CC50 (HOP-62): 9.79 µM | GI50 (NCI-H226): 1.26 µM | LC50 (NCI-H226): 8 µM | GI50 (NCI-H23): 0.407 µM | CC50 (NCI-H23): 7.7 µM | GI50 (NCI-H322M): 1.52 µM | LC50 (NCI-H322M): 6.4 µM | GI50 (NCI-H460): 0.663 µM | LC50 (NCI-H460): 5.24 µM | GI50 (NCI-H522): 1.02 µM | LC50 (NCI-H522): > 100 µM | GI50 (HCT-116): 0.651 µM | CC50 (HCT-116): > 100 µM | GI50 (KM12): 0.454 µM | CC50 (KM12): 5.46 µM | GI50 (SF-268): 1.14 µM | CC50 (SF-268): 6.29 µM | GI50 (SF-295): 0.484 µM | CC50 (SF-295): 6.61 µM | GI50 (SF-539): 0.937 µM | LC50 (lethal concentration, 50% cell kill) (SF-539): 5.28 µM | GI50 (SNB-19): 1.18 µM | CC50 (SNB-19): 4.95 µM | GI50 (SNB-75): 0.53 µM | CC50 (SNB-75): 5.71 µM | GI50 (U-251): 0.397 µM | CC50 (U-251): 3.97 µM | GI50 (Malme-3M): 0.454 µM | LC50 (concentration killing 50% of cells) (Malme-3M): 5.08 µM | GI50 (SK-MEL-2): 2.09 µM | LC50 (SK-MEL-2): > 100 µM | GI50 (SK-MEL-28): 1.14 µM | LC50 (SK-MEL-28): 6.51 µM | GI50 (UACC-62): 1.04 µM | LC50 (UACC-62): 5.1 µM | GI50 (IGROV-1): 0.516 µM | CC50 (IGROV-1): > 100 µM | GI50 (OVCAR-5): 0.909 µM | CC50 (OVCAR-5): 9.14 µM | GI50 (OVCAR-8): 0.913 µM | LC50 (OVCAR-8): > 100 µM | GI50 (A498): 1.07 µM | CC50 (A498): 6.22 µM | GI50 (ACHN): 0.92 µM | LC50 (ACHN): 4.78 µM | GI50 (TK-10): 0.407 µM | LC50 (TK-10): 4.43 µM | GI50 (UO-31): 1.48 µM | LC50 (UO-31): > 100 µM | GI50 (PC-3): 0.311 µM | CC50 (PC-3): 5.26 µM | GI50 (DU-145): 0.792 µM | CC50 (DU-145): 4.69 µM | GI50 [3]: 0.546 µM | CC50 [3]: 8.48 µM | GI50 (MDA-MB-468): 0.196 µM | LC50 (MDA-MB-468): > 100 µM
